Entries after “also recorded” stand apart in the source; their conditions may differ. Where two headings read alike, the source gives them in different places.
What was measured:
[1] = Cyclic voltammetry, oxidation of the oligoelectrolytes (current/potential curves); assay type: physicochemical; details: vs. Ag/AgCl, 200 mV/s scan rate
[2] = Cyclic voltammetry blocking experiment: transmembrane electron transport across sBLMs to aq. ferricyanide; details: for transmembrane electron transport across sBLM (current in CV): 2 mol % in DMPC and DPPC sBLMs, aq. ferricyanide, 200 mV/s scan rate
Method: Bilayer membranes supported on glassy carbon electrodes were prepared according to a modified literature procedure (Huang, W.; Zhang, Z.; Han, X.; Tang, J.; Wang, J.; Dong, S.; Wang, E. Biophys. J. 2002, 83, 3245-3255; Wu, Z.; Tang, J.; Cheng, Z.; Yang, X.; Wang, E. Anal. Chem. 2000, 72, 6030-6033). […] Electrode surface modification was performed by applying a constant 1.5 V bias for four minutes to a freshly polished glassy carbon electrode submerged in a 0.1 M aq. NaOH solution. Upon completion of this process the electrode was dried via argon steam followed by deposition of a 5 μL aliquot of the desired DMPC membrane forming solution to the electrode surface. The solvent was allowed to evaporate and electrode was immediately placed into phosphate buffer (pH 7.4) to allow the bilayer to assemble over a 0.5 hour time period. The working electrode containing the supported bilayer lipid membrane (sBLM) was then used directly.
Cyclic voltammograms were collected at scan rates of 50-200 mV/sec using a standard three-electrode setup that employed a Pt wire counter electrode, a Ag/AgCl reference electrode and a glassy carbon working electrode (modified or unmodified). All runs were performed in aq. 0.5 M KCl electrolyte solution containing 1 mM potassium ferricyanide (the active redox and indicator species). Oxygen was removed from the system via bubbling Ar through the solution for several minutes prior to data collection. The working electrode was freshly polished between each run prior to voltammogram collection or sBLM formation followed by voltammogram collection. Data was collected within the range of 0-0.4 V potentials relative to Ag/AgCl.
OPVs within a saturated alkane thiol monolayer can facilitate charge tunneling from a metallic electrode to a tethered redox species (Dudek, S. P.; Sikes, H. D.; Chidsey, C. E. D. J. Am. Chem. Soc. 2001, 123, 8033-8038; Sikes, H. D.; Smalley, J. F.; Dudek, S. P.; Cook, A. R.; Newton, M. D.; Chidsey, C. E. D.; Feldberg, S. W. Science. 2001, 291, 1519-1523). A variation of this approach was used in which supported bilayer membranes (sBLM) containing DSSN+, DSBN+ and other control molecules were prepared on the surface of a glassy carbon electrode surface. The sBLM-modified electrodes were then employed in a series of ‘blocking’ experiments in which cyclic voltammetry was used to monitor the reversible […] of aqueous ferricyanide. The unmodified sBLM acts as an insulating layer between the working electrode and the solution containing ferricyanide thereby greatly suppressing the redox current (Wiegand, G.; Arribas-Layton, N.; Hillebrandt, H.; Sackmann, E.; Wagner, P. J. Phys. Chem. B. 2002, 106, 4245-4254; Żebrowska, A.; Krysiński, P.; ? otowski, Z. Bioelectrochemistry. 2002, 56, 179-184). […]

[3] = system: yeast; experiment: Yeast microbial fuel cell (U-tube MFC) voltage production; assay type: cell-based; details: for Maximum voltage (Vmax): across a 10 kΩ resistor
Description: Two-chamber MFCs were constructed in a similar fashion as previously described (Milliken, C. E.; May, H. D. Appl. Microbiol. Biotechnol. 2007, 73, 1180-1189; Sund, C. J.; Wong, M. S.; Sumner, J. J. Biosens. Bioelectron. 2009, 24, 3144-3147; Sund, C. J.; McMasters, S.; Crittenden, S. R.; Harrell, L. E.; Sumner, J. J. Appl. Microbiol. Biotechnol. 2007, 76, 561-568) with some modifications and pictured in FIG. 9. The anodes and cathodes consisted of carbon felt (100% Activated Carbon Fiber Filter, CarboPur Technologies, Montreal, Canada), ⅛ inch thick, cut to the dimensions of 5 cm by 1 cm. The carbon felts were attached to 0.25 mm diameter titanium wires (AlfaAesar, Ward Hill, Mass.) as electrical leads. A new piece of Nafion® 117 (DuPont, Wilmington, Del., USA) was used for each fuel cell. Anode wires were passed through silicone rubber septa used to seal the anode compartment following inoculation while the cathode compartment was covered with a loose-fitting glass vial. Each fuel cell compartment was filled with 20 ml of media and autoclaved. Inoculation of MFCs consisted of addition of 300 μL of stained (25 μM COE) or unstained yeast stock solution (O.D.=1.75). Methylene blue was added separately as a stock solution (0.1% by weight, 2.67 mM) for the positive control runs employing this mediator. MFCs were incubated in an aerobic 30° C. incubator and the potential across a 10 kΩ resistor was measured and recorded every 10 seconds via a DAQPad-6016 and a custom LabView® VI (National Instruments, Austin, Tex., USA).
A U-tube type MFC (Milliken, C. E.; May, H. D. Appl. Microbiol. Biotechnol. 2007, 73, 1180-1189; Sund, C. J.; Wong, M. S.; Sumner, J. J. Biosens. Bioelectron. 2009, 24, 3144-3147; Sund, C. J.; McMasters, S.; Crittenden, S. R.; Harrell, L. E.; Sumner, J. J. Appl. Microbiol. Biotechnol. 2007, 76, 561-568) (FIG. 9) was employed to test and compare the performance of a series of yeast MFCs employing nM concentrations of DSSN+ and DSBN+ to the performance of a series of negative controls with no external mediator and a series of positive controls employing the common electron transport mediator methylene blue in μM concentrations. The details of MFC construction, preparation, and evaluation are discussed in detail in the section entitled “Microbial fuel cell preparation and assembly.” MFC performance was evaluated in terms of voltage instead of current. Voltage readings were obtained as a function of current across a 10 kΩ resistor.

[4] = UV-Vis absorbance and PL spectroscopy of oligoelectrolytes embedded in lipid bilayers (DMPC vesicles); details: for εmax / λabs / λem / η: lipid bilayer; for blue (hypsochromic) shift in λem / red (bathochromic) shift in λabs: lipid bilayer (DMPC vesicle membranes) compared to water / pH 7.3 HEPES buffer; for η: relative to a fluorescein standard at pH 12
Method: In order to prepare a typical membrane modified vesicle sample by sonication a methanolic DMPC solution containing a desired mol % DSBN+ was prepared (a typical solution is 1-5 mole % DSBN+ based on 50 micro-moles of DMPC). The methanol was slowly removed by argon flow while the solution was held at a constant 32-38° C. followed by vacuum oven drying at room temperature until dried to a constant weight. Next, enough H2O or pH 7 HEPES buffer was added to obtain a solution with a concentration of ˜1-20 mg/mL depending upon application (imaging or photoluminescence measurement for example). This solution was then sonicated at 40-50° C. for 0.5-7 hours, typically until the solution had lost most of its turbidity. This generates multi-lamellar vesicles. Uni-lamellar vesicles with diameters of ˜450 nm (with a somewhat broad size distribution based on cryo-TEM images) were formed as the resulting solution was filtered using 0.45 μm pore size syringe filters to yield a slightly turbid solution that must be further diluted to clarity with water or buffer in order to collect UV absorbance or photoluminescence spectra.
Efforts to modify the vesicle membranes with DSBN+ and DSSN+ followed modified literature procedures (Lin, A. J.; Slack, N. L.; Ahmad, A.; George, C. X.; Samuel, C. E.; Safinya, C. R. Biophys. J. 2003, 84, 3307-3316). First, a lipid stock solution containing the desired fraction of either DSSN+ or DSBN+, typically 1-5 mol % relative to lipid, was prepared in methanol. This lipid/COE stock solution was then heated and held above the transition temperature of the lipid (23° C. and 41° C. for DMPC and DPPC, respectively) as the solvent was removed via Argon flushing, followed by vacuum drying to a constant weight. The resulting lipid/COE solid was then suspended in pH=7.3 HEPES buffer to the desired concentration (1-10 mg/mL). Multi-lamellar vesicles were then formed by self-assembly upon sonication of the resulting solution. Uni-lamellar vesicles were prepared by filtration (using 0.45 or 0.2 μm pore size syringe filters) or by extrusion (Olson, F.; Hunt, C. A.; Szoka, F. C.; Vail, W. J.; Papahadjopoulos, D. Biochim. Biophys. Acta. 1979, 557, 9-23; Socaciu, C.; Bojarski, P.; Aberle, L.; Diehl, H. A. Biophys. Chem. 2002, 99, 1-15; Szoka, F.; Olson, F.; Heath, T.; Vail, W.; Mayhew, E.; Papahadjopoulos, D. Biochim. Biophys. Acta. 1980, 601, 559-571).

[5] = system: Baker's yeast; experiment: Yeast cell staining, confocal/epi-fluorescence imaging; assay type: cell-based; details: for accumulation within cell membranes (fluorescence images): 100 μM, 1 hour of shaking, excitation 488 nm
Method: Stock solutions of DSSN+ and DSBN+ (1-5 mM, typically 5 mL) were prepared in pH 7.3 phosphate buffer. […] Cultures were never allowed to exceed an optical density of 6. In a typical cell staining run a 1 mL sample was transferred to 1.5 mL Eppendorf tube and the growth media was removed by centrifugation of cells followed by decanting of the growth media. The cells were then re-suspended in phosphate buffer and an appropriate volume of oligoelectrolyte stock solution was added to achieve a 10-100 μM concentration of DSSN+ or DSBN+. The cells were then shaken lightly for 10-180 min at room temperature. The cells can then be imaged directly or following buffer exchange via centrifugation and cell re-suspension. In an alternate procedure, as is the same staining (membrane incorporation) procedure performed with MFC inoculation samples, the cells are simply stained (by addition of COE stock solutions prepared in growth media to culture samples) and imaged directly in the original growth media. […] Sample preparation is completed by depositing a ˜3-6 μL aliquot of stained cell solution onto a traditional slide followed by a cover slip (in this case the slide is inverted and placed over a water or oil immersion objective interfaced with either a Nikon or Leica confocal fluorescence microscope). […]
FIG. 8 consists of two sets of confocal microscopy fluorescence images of Baker's yeast, each stained and imaged in a 100 μM solution of DSSN+ (FIG. 8A) or DSBN+ (FIG. 8B) after 1 hour of shaking without exchanging the staining media.
The ability of DSBN+ and DSSN+ to be passed on to or exist within cell membranes of subsequent yeast generations born over the course of MFC operation was also investigated. […] Cells from each of these aliquots were imaged using a confocal microscope in epi-fluorescence mode and brightfield mode. […] FIG. 11B is an epi-fluorescence and brightfield image (inset, lower left) of a small group of yeast cells removed from the same MFC on the fourth day of operation.

[6] = UV-Vis absorption and photoluminescence (PL) spectroscopy in solvents of varying polarity; details: for η (quantum efficiency): relative to a fluorescein standard at pH 12
Description: General photophysical and solvatochromatic features of the neutral (DSSN, DSBN) and charged (DSSN+, DSBN+) versions of each chromophore were probed by using UV-Vis absorption and photoluminescence (PL) spectroscopies.

[7] = DMSO; value abstracted from reference (Woo et al. JACS 2005); cited from earlier work

SMILES | oxidation potential (Eox) [1] [V] | transmembrane electron transport across sBLM (current in CV) [2] | Maximum voltage (Vmax) ([3]; 190 nM) [mV] | εmax [4] [Lmol^−1cm^−1 × 10^−4] | λabs [4] [nm] | λem [4] [nm] | blue (hypsochromic) shift in λem [4] [nm] | red (bathochromic) shift in λabs [4] [nm] | η [4] | accumulation within cell membranes (fluorescence images) [5] | εmax (molar extinction coefficient at λmax) ([6]; DMSO) [Lmol^−1cm^−1 × 10^−4] | λabs ([6]; DMSO) [nm] | λem ([6]; DMSO) [nm] | η (quantum efficiency) ([6]; DMSO) | εmax (molar extinction coefficient at λmax) ([6]; water) [Lmol^−1cm^−1 × 10^−4] | λabs ([6]; water) [nm] | λem ([6]; water) [nm] | η (quantum efficiency) ([6]; water) | εmax (molar extinction coefficient at λmax) ([6]; THF) [Lmol^−1cm^−1 × 10^−4] | λabs ([6]; THF) [nm] | also measured
C[N+](C)(C)CCCCCCN(CCCCCC[N+](C)(C)C)c1ccc(C=Cc2ccc(C=Cc3ccc(N(CCCCCC[N+](C)(C)C)CCCCCC[N+](C)(C)C)cc3)cc2)cc1.[I-].[I-].[I-].[I-] [DSBN+, 1,4-bis(4′-(N,N-bis(6″-(N,N,N-trimethylammonium)hexyl)amino)-styryl)benzene tetraiodide] | ~0.55 | facilitate transmembrane electron transport; also recorded: display higher currents with respect to the control experiments | ~55 | 4.8 | 422 | 474 | 92 | 16 | 0.59 | apparent preferential accumulation of the COEs within cell membranes | 8.2 | 419 | 511 | 0.86 | 6.0 | 406 | 566 | 0.33 | – | – | –
ICCCCCCN(CCCCCCI)c1ccc(C=Cc2ccc(C=Cc3ccc(N(CCCCCCI)CCCCCCI)cc3)cc2)cc1 [DSBN, 1,4-bis(4′-(N,N-bis(6″-iodohexyl)amino)styryl)benzene] | – | – | – | – | – | – | – | – | – | – | – | 419 | 516 | 0.81 | – | – | – | – | 8.5 | 410 | εmax (molar extinction coefficient at λmax) [7]: 7.8 Lmol^−1cm^−1 × 10^−4; λem ([6]; THF): 466 nm; η (quantum efficiency) ([6]; THF): 0.92; εmax (molar extinction coefficient at λmax) ([6]; toluene): 8.4 Lmol^−1cm^−1 × 10^−4; λabs ([6]; toluene): 410 nm; λem ([6]; toluene): 454 nm; η (quantum efficiency) ([6]; toluene): 0.98
C[N+](C)(C)CCCCCCN(CCCCCC[N+](C)(C)C)c1ccc(/C=C/c2ccc(/C=C/c3ccc(/C=C/c4ccc(N(CCCCCC[N+](C)(C)C)CCCCCC[N+](C)(C)C)cc4)cc3)cc2)cc1 [DSSN+, 4,4′-bis(4′-(N,N-bis(6″-(N,N,N-trimethylammonium)hexyl)amino)-styryl)stilbene tetraiodide] | ~0.55 | facilitate transmembrane electron transport; also recorded: display higher currents with respect to the control experiments | ~200 | 8.4 | 433 | 532 | 62 | 21 | 0.85 | apparent preferential accumulation of the COEs within cell membranes | 9.8 | 435 | 596 | 0.71 | 6.6 | 412 | 594 | 0.06 | – | – | current response of sBLMs containing DSSN+ instead of DSBN+ ([2]; 2 mol % in sBLMs): greater current response; increase in voltage production compared to methylene blue ([3]; 190 nM vs 13 μM methylene blue): ~5 fold; presence of mediator in later cell generations ([5]; yeast stained with 25 μM, removed from MFC on day 4 of operation): demonstrate the presence of this mediator in later cell generations
ICCCCCCN(CCCCCCI)c1ccc(C=Cc2ccc(C=Cc3ccc(C=Cc4ccc(N(CCCCCCI)CCCCCCI)cc4)cc3)cc2)cc1 [DSSN, 4,4′-bis(4′-(N,N-bis(6″-iodohexyl)amino)styryl)stilbene] | – | – | – | – | – | – | – | – | – | – | 9.6 | 436 | 602 | 0.73 | – | – | – | – | 10.6 | 426 | λem ([6]; THF): 526 nm; η (quantum efficiency) ([6]; THF): 0.89; εmax (molar extinction coefficient at λmax) ([6]; toluene): 10.7 Lmol^−1cm^−1 × 10^−4; λabs ([6]; toluene): 425 nm; λem ([6]; toluene): 476 nm; η (quantum efficiency) ([6]; toluene): 0.95
CCCCCCCCCCCCN(CCCCCCCCCCCC)CCCCCCCCCCCC [TDA, tridodecylamine, reference compound] | – | Little to no transmembrane electron transfer occurs; also recorded: featureless | – | – | – | – | – | – | – | – | – | – | – | – | – | – | – | – | – | – | –
CN(C)c1ccc2nc3ccc(=[N+](C)C)cc-3sc2c1 [methylene blue, reference compound] | – | – | – | – | – | – | – | – | – | – | – | – | – | – | – | – | – | – | – | – | Maximum voltage (Vmax) ([3]; 13 μM): ~40 mV

Source: patent publication US8614021B2, “Agents for enhanced charge transport across microbial membranes” (The United States of America as represented by the …, priority 2010, dated 2013)
